Results reported in patent US20260232812A1, “BIFUNCTIONAL MOLECULES FOR TARGETED PROTEIN DEGRADATION” (Amphista Therapeutics Limited, priority 2022, published 2026).

Assays:
Type in all cases: cell-based
BRD9 [1] = molecular target: T1, BRD9 (Homo sapiens, UniProt Q9H8M2); test: Assay Protocol 1 - Degradation of HiBit-BRD9 in HEK293; conditions: titration up to 10 μM; for Dmax: HEK293, Assay Protocol 1: HiBit-BRD9 in HEK293, 6 h
T1 sequence (Q9H8M2 1-597): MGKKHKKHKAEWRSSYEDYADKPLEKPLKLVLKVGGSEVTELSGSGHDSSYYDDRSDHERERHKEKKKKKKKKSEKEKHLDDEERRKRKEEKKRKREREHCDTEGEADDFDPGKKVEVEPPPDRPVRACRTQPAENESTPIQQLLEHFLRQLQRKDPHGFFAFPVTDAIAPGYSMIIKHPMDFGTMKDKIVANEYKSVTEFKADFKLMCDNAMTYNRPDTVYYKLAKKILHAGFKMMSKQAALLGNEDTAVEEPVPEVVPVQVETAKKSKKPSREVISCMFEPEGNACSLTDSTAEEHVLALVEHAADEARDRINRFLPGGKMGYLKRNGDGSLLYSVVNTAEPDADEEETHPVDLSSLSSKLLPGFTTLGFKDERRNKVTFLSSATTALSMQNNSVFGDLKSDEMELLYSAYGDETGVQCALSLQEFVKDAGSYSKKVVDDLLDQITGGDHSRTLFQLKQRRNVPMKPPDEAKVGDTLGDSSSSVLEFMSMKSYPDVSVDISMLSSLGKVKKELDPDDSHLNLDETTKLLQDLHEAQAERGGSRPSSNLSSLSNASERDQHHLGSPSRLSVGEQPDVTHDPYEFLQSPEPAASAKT
Experimental: Assay Protocol 1—Degradation of HiBit-BRD9 in HEK293
HEK293 stably expressing LgBit and containing a HiBit insertion for BRD9 were plated in 384-well tissue culture plates at a density of 8×10^3 per well in a volume of 36 μL and incubated overnight at 37° C. and 5% CO2. Wells were treated with test compounds (11 pt titration up to 10 μM) for 6 h prior to addition of Nano-Glo® Hibit Lytic buffer (1:50 substrate and 1:100 LgBit protein) and reading on a PheraSTAR. Degradation data was plotted and analysed using Prism 8 (Graphpad).

BRD9 [2] = molecular target: T1, BRD9; test: Assay Protocol 2 - Degradation of BRD9 (IF) in MV4-11 cells; design: host or cells: MV4-11; conditions: Assay Protocol 2: BRD9 immunofluorescence, 24 hours
Experimental: Assay Protocol 2—Degradation of BRD9 (IF)
A suspension of MV4-11 cells (ATCC CRL-9591) was prepared in phenol red-free assay media (IMDM Thermo Scientific 21056023+10% FBS ATCC 302025) and cells were seeded at 20,000 cells per well (45 μL) in sterile black poly-d-lysine coated 384 well plates (Greiner 781948). Compounds were prepared at 1000× final concentration in DMSO, diluted 1:100 in assay media, and 5 μL compound was added to each well of the cell plate. Cells were incubated for 24 hours at 37° C. with 5% CO2. All the following incubations for immunofluorescence staining were at room temperature. 15 μL of 16% PFA was added to each well (3.7% final concentration) and the cells were fixed for 15 min then washed twice with DPBS. Cells were permeabilised with 0.1% Triton X-100 for 10 min, Triton X-100 was removed, then blocked with 1% BSA in DPBS for 1 hour. Cells were stained with 25 μL anti-BRD9 E4Q3F antibody (CST 48306) diluted 1:25600 in 1% BSA in DPBS for 2-3 hours. Wells were washed twice with DPBS then incubated with 25 μL of 1% BSA containing a 1:1000 dilution of Anti-rabbit Alexa Fluor™ 647 secondary antibody (Thermo Scientific A^21244) and 1 μg/mL Hoechst nuclear counter stain (Abcam ab228551) for 1 hour. Wells were washed twice with DPBS prior to imaging on a Perkin Elmer Operetta CLS with 10× air lens. Images were processed using Harmony High-Content Imaging and Analysis Software (Perkin Elmer) and the mean contrast ratio of Alexa Fluor™ 647 in central nuclei was used to quantify BRD9 protein levels. Data was further analysed using Dotmatics software and % BRD9 remaining was calculated by normalisation to average data from high and low control wells (cells treated with DMSO or 100 nM CFT-8634 respectively).

SMARCA2 = molecular target: T2, SMARCA2 (Homo sapiens, UniProt P51531); test: SMARCA2 degradation, HeLa SMARCA2 HiBiT cells (Assay Protocol 1); conditions: 24 hours after compound addition
T2 construct: a HiBiT tag knocked in at the 3′ end of SMARCA2; host or cells: HeLa SMARCA2 HiBiT knock-in cells
Experimental: Hela cells with a HiBiT tag knocked in at the 3′ end of SMARCA2 were purchased from Promega (Custom product) (1). HeLa SMARCA2 HiBiT transfected cells were treated with compounds at indicated concentrations using the FlexDrop IQ (Perkin Elmer). 24 hours after compound additions abundance of HiBiT tagged protein was quantified using NanoGlo HiBiT lytic detection system (Promega, N3050). Cell viability was measured using Cell Titre Glow cell viability assay (Promega, G9243). In each case luminescence was measured on a Pherastar platereader.

[3] = Assay Protocol 1: HiBit-BRD9 in HEK293, 6 h

T2 sequence (P51531 whole entry): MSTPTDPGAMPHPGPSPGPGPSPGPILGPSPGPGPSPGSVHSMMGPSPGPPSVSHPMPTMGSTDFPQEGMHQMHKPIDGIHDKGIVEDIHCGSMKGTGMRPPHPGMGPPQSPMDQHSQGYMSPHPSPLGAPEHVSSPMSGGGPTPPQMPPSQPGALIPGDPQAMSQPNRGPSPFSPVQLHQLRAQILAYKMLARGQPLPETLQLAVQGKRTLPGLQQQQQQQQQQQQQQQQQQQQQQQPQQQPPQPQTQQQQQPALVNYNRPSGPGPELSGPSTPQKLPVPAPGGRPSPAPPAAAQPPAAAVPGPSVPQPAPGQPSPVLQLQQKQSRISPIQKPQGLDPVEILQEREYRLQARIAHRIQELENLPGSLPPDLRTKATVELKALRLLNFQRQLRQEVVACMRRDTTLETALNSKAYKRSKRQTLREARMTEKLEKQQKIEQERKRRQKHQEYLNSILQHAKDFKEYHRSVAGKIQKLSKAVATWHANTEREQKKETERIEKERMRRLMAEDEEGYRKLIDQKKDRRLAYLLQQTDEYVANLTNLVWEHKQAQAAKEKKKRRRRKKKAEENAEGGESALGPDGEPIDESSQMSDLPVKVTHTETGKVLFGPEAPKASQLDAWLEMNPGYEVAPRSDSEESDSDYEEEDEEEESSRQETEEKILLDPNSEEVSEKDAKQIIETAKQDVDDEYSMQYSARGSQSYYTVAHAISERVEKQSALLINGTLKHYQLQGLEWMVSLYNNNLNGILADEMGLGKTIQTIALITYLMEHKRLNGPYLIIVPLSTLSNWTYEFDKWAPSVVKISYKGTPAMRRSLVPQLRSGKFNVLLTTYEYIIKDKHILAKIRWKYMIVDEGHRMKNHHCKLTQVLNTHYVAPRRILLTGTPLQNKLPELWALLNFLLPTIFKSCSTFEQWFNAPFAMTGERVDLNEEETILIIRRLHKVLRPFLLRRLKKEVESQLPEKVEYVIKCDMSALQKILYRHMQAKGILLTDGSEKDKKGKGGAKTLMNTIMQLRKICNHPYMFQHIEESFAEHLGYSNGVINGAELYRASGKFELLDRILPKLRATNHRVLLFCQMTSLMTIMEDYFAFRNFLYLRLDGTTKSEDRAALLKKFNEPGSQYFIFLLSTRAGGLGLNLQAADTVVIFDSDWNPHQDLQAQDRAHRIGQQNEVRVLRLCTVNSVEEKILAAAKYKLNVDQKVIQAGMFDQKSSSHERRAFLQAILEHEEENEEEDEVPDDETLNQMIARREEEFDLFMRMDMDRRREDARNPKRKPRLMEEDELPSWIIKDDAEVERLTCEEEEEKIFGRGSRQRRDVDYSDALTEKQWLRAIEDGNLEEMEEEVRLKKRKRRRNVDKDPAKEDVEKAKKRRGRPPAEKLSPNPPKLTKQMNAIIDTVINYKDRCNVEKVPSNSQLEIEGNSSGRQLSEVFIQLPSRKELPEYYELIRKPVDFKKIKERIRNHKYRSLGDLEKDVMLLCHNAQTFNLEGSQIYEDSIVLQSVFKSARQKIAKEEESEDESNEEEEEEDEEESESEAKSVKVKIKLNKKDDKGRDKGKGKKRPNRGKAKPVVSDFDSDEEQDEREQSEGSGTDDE

SMILES | DC50 (BRD9 [1]; [3]) | DC50 (BRD9 [2]) | Dmax (BRD9 [2]) | Dmax (SMARCA2) | further results
COc1cc(-c2cn(C)c(=O)c(C)c2C)cc(OC)c1CN(C)C1CCN(C(=O)/C(C#N)=C/C23CC(C2)C3)CC1 (mixture of isomers) [BRD9ae, (E/Z)-3-(bicyclo[1.1.1]pentan-1-yl)-2-(4-((2,6-dimethoxy-4-(1,4,5-trimethyl-6-oxo-1,6-dihydropyridin-3-yl)benzyl)(methyl)amino)piperidine-1-carbonyl)acrylonitrile] | < 25 nM | < 25 nM | ≥ 70% |  | Dmax (BRD9 [1]): ≥ 70%
COc1cc(-c2cn(C)c(=O)c(C)c2C)cc(OC)c1CN1CC2CC(C1)N2C(=O)/C(C#N)=C/c1nccs1 (mixture of isomers) [BRD9l, (E/Z)-2-(3-(2,6-dimethoxy-4-(1,4,5-trimethyl-6-oxo-1,6-dihydropyridin-3-yl)benzyl)-3,6-diazabicyclo[3.1.1]heptane-6-carbonyl)-3-(thiazol-2-yl)acrylonitrile] | > 200 nM |  | 30 to 50% |  | 
COc1cc(-c2cn(C)c(=O)c(C)c2C)cc(OC)c1CN1C2CC1CN(C(=O)/C(C#N)=C/c1nccs1)C2 (mixture of isomers) [BRD9n, (E/Z)-2-(6-(2,6-dimethoxy-4-(1,4,5-trimethyl-6-oxo-1,6-dihydropyridin-3-yl)benzyl)-3,6-diazabicyclo[3.1.1]heptane-3-carbonyl)-3-(thiazol-2-yl)acrylonitrile] | < 25 nM | < 25 nM | ≥ 70% |  | 
COc1cc(-c2cn(C)c(=O)c(C)c2C)cc(OC)c1CN1C2CC1CN(C(=O)/C(C#N)=C/c1cccc(Br)n1)C2 (mixture of isomers) [BRD9o, (E/Z)-3-(6-bromopyridin-2-yl)-2-(6-(2,6-dimethoxy-4-(1,4,5-trimethyl-6-oxo-1,6-dihydropyridin-3-yl)benzyl)-3,6-diazabicyclo[3.1.1]heptane-3-carbonyl)acrylonitrile] | < 25 nM | < 25 nM | ≥ 70% |  | 
COc1cc(-c2cn(C)c(=O)c(C)c2C)cc(OC)c1CN1CC2CCC(C1)N2C(=O)/C(C#N)=C/c1nccs1 (mixture of isomers) [BRD9q, (E/Z)-2-(3-(2,6-dimethoxy-4-(1,4,5-trimethyl-6-oxo-1,6-dihydropyridin-3-yl)benzyl)-3,8-diazabicyclo[3.2.1]octane-8-carbonyl)-3-(thiazol-2-yl)acrylonitrile] | > 200 nM | > 200 nM | 50 to 70% |  | 
COc1cc(-c2cn(C)c(=O)c(C)c2C)cc(OC)c1CN1CCN(C(=O)/C(C#N)=C/C(C)(C)C)CC1 [BRD9a, (E/Z)-2-(4-(2,6-dimethoxy-4-(1,4,5-trimethyl-6-oxo-1,6-dihydropyridin-3-yl)benzyl)piperazine-1-carbonyl)-4,4-dimethylpent-2-enenitrile] | 25 to 200 nM | < 25 nM |  |  | 
COc1ccc([C@@H]2CN(C(=O)/C(C#N)=C/c3nccs3)C[C@H]2C(=O)N2CCN(Cc3c(OC)cc(-c4cn(C)c(=O)c(C)c4C)cc3OC)CC2)cc1 [BRD9ah] |  | < 25 nM | ≥ 70% |  | Dmax (BRD9 [1]): 30 to 50%
COc1cc(-c2cn(C)c(=O)c(C)c2C)cc(OC)c1CN1CCN(C(=O)[C@@H]2CN(C(=O)/C(C#N)=C/c3nccs3)C[C@H]2c2ccccc2)CC1 [BRD9ai] |  |  | 50 to 70% |  | Dmax (BRD9 [1]): 30 to 50%
COc1ccc([C@@H]2CN(C(=O)/C(C#N)=C/c3nccs3)C[C@H]2C(=O)N2CCN(Cc3c(OC)cc(-c4cn(C)c(=O)c(C)c4C)cc3OC)CC2)cc1 [BRD9be] |  | < 25 nM |  |  | Dmax^1 (BRD9 [1]; [3]): ++ (++ = ≥50% and <70%); Dmax^2 (BRD9 [2]): +++ (+++ = ≥70%)
COc1cc(-c2cn(C)c(=O)c(C)c2C)cc(OC)c1CN(C)C1CCN(C(=O)/C(C#N)=C/C(C)(C)C)CC1 [BRD9d, (E/Z)-2-(4-((2,6-dimethoxy-4-(1,4,5-trimethyl-6-oxo-1,6-dihydropyridin-3-yl)benzyl)(methyl)amino)piperidine-1-carbonyl)-4,4-dimethylpent-2-enenitrile] | < 25 nM | < 25 nM |  |  | 
COc1cc(-c2cn(C)c(=O)c(C)c2C)cc(OC)c1CN1CCC2(CC1)CCN(C(=O)/C(C#N)=C/c1cccc(Br)n1)CC2 [BRD9r, (E/Z)-3-(6-bromopyridin-2-yl)-2-(9-(2,6-dimethoxy-4-(1,4,5-trimethyl-6-oxo-1,6-dihydropyridin-3-yl)benzyl)-3,9-diazaspiro[5.5]undecane-3-carbonyl)acrylonitrile] | < 25 nM | < 25 nM |  |  | Dmax (BRD9 [1]): ≥ 70%
COc1cc(-c2cn(C)c(=O)c(C)c2C)cc(OC)c1CN(C)C1CCN(C(=O)/C(C#N)=C/c2cccc(Br)n2)CC1 [BRD9z, (E/Z)-3-(6-bromopyridin-2-yl)-2-(4-((2,6-dimethoxy-4-(1,4,5-trimethyl-6-oxo-1,6-dihydropyridin-3-yl)benzyl)(methyl)amino)piperidine-1-carbonyl)acrylonitrile] | < 25 nM | < 25 nM |  |  | Dmax (BRD9 [1]): ≥ 70%
CC(C)(C)/C=C(\C#N)C(=O)N1CCN(CC(=O)N[C@@H]2CCCN(c3cc(-c4ccccc4O)nnc3N)C2)CC1 [SMARCA2b] |  |  |  | 50 to 65% | 
CC(C)(C)/C=C(\C#N)C(=O)N1CCN(CC(=O)N2CCc3[nH]c4nnc(-c5ccccc5O)cc4c3C2)CC1 [SMARCA2e] |  |  |  | 50 to 65% | 
CC(C)C1CC(C(=O)N[C@@H]2CCCN(c3cc(-c4ccccc4O)nnc3N)C2)CN(C(=O)/C(C#N)=C/C(C)(C)C)C1 (some centres unmarked) [SMARCA2f] |  |  |  | 50 to 65% | 
CC(C)C1CC(C(=O)N[C@@H]2CCCN(c3cc(-c4ccccc4O)nnc3N)C2)CN(C(=O)/C(C#N)=C/c2nccs2)C1 (some centres unmarked) [SMARCA2g] |  |  |  | 65 to 80% | 
CC(C)(C)/C=C(\C#N)C(=O)N1C[C@@H](C(=O)N[C@@H]2CCCN(c3cc(-c4ccccc4O)nnc3N)C2)[C@H](C2CCCCC2)C1 [SMARCA2h] |  |  |  | 65 to 80% | 
COc1ccc(C2CC(C(=O)N[C@@H]3CCCN(c4cc(-c5ccccc5O)nnc4N)C3)CN(C(=O)/C(C#N)=C/c3ccn(C)n3)C2)cc1 (some centres unmarked) [SMARCA2i] |  |  |  | 50 to 65% | 
CC(C)[C@@H]1CN(C(=O)/C(C#N)=C/C(C)(C)C)C[C@H]1C(=O)N[C@@H]1CCCN(c2cc(-c3ccccc3O)nnc2N)C1 [SMARCA2j] |  |  |  | 65 to 80% | 
N#C/C(=C\c1nccs1)C(=O)N1CCCC(C(=O)N[C@@H]2CCCN(c3cc(-c4ccccc4O)nnc3N)C2)C1 (some centres unmarked) [SMARCA2l] |  |  |  | 50 to 65% | 
